Measurements from patent US20050119188A1, “Method of treating breast cancer” (priority 2003, published 2005).
Like-named read-outs stand apart in the source and are kept apart here.

Key:
MCF-7 cells = assay: Growth studies in vitro: estrogen-stimulated MCF-7 cell proliferation (CellTiter-Glo luminescent viability assay); format: cell-based, human; conditions: for inhibition at 0.1 µM: read-out: inhibited cell proliferation; for IC50: single agent, E2 (1 nM)-stimulated MCF-7 cells, Day 6, read-out: IC50 value, inhibition of MCF-7 cell growth
Description: Cell lines. MCF-7 cells were provided from Dr. A. Brodie (University of Maryland School of Medicine, Baltimore, Md.) and cultured in DMEM supplemented with 5% fetal bovine serum (FBS) and 1% penicillin/streptomycin (P/S). MCF-7arom cells were provided from Dr. S. Chen (Beckman Research Institute of the City of Hope, Duarte, Calif.) and cultured in DMEM supplemented with 5% FBS and 750 μg/ml geneticin.
Growth studies in vitro. Six days prior to plating in 96-well plates, MCF-7 cells growing in T-75 flasks (30-50% confluent) were washed extensively with phenyl red-free DPBS and transferred to estrogen-depleted medium. Estrogen-depleted medium was phenyl red-free DMEM/F-12 containing 10% heat-treated and dextran-coated charcoal-treated fetal bovine serum and 1% penicillin/streptomycin solution. Estrogen depleted media was refreshed 3 days prior to plating. On Day 0, cells were seeded (1,200 cells/well) into 96-well plates in estrogen-depleted medium and allowed to attach. On Day 1 the media was aspirated and replaced in 6-well replicates with estrogen-depleted medium supplemented with E2 (1 nM), and 4-OH Tamoxifen (Sigma Chemical Company, St Louis, Mo. in the range 10 nM-10 μM), or Fulvestrant (Tocris, Ellisville, Mo. in the range 10 nM-1.0 μM), FTI (in the range 10 nM-10 μM), and a combination of the antiestrogens and FTI. Media containing drugs was refreshed on Day 3. The effects of treatment on cell proliferation were determined on Day 6 using the CellTiter-Glo luminescent viability assay (Promega Corp., Madison, Wis.).

[1] = tested on: MCF-7 breast tumor xenografts; assay: Estrogen-stimulated MCF-7 breast tumor xenograft growth in vivo, FTI plus Tamoxifen; parameters: species or system athymic nude mice
Description: (§1) Growth Studies in vivo. Female ovariectomized athymic nude mice were obtained from Charles River Laboratories (Worcester, Mass.). Androstenedione (Δ4A) pellets (25 mg and 15 mg, 90-day slow release) and 17β-estradiol (E2) pellets (0.72 mg, 60-day slow release) were from Innovative Research of America (Saratoga, Fla.). Anastrozole and Letrozole were obtained from Sequoia Research Products, Oxford, United Kingdom) and Tamoxifen was from Sigma Chemical Company.
(§2) MCF-7 breast tumor growth was performed as described previously (Osborne et al., 1995, J. Natl Cancer Inst., 87, 746-750) with minor modifications. To determine the effect of combined FTI plus Tamoxifen on the growth of MCF-7 breast tumor xenografts, 5.0×10^6 MCF-7 cells were inoculated into the right flank of the animals in 100 μl of Matrigel. Animals had been implanted with a 0.72 mg, 60-day pellet the previous day. Fourteen days after cell inoculation, the animals were grouped for treatment with: • 1) Vehicle • 2) Tamoxifen (25 mpk, p.o., q.d.) • 3) FTI (20 mpk, p.o., b.i.d.) • 4) FTI (40 mpk, p.o., b.i.d.) • 5) FTI (20 mpk, p.o., b.i.d.)+Tamoxifen (25 mpk, p.o., q.d.) • 6) FTI (40 mpk, p.o., b.i.d.)+Tamoxifen (25 mpk, p.o., q.d.)
(§3) Treatment was continued for 28 days and tumor volumes were measured twice a week with calipers as described above.

[2] = tested on: MCF-7arom breast tumor xenografts; assay: MCF-7arom breast tumor xenograft growth in vivo, FTI plus Tamoxifen; parameters: species or system athymic nude mice; conditions: Day 10 of treatment
Description: as §1
as §2, with “To” for “MCF-7 breast tumor growth was performed as described previously (Osborne et al., 1995, J. Natl Cancer Inst., 87, 746-750) with minor modifications. To”, “MCF-7arom” for “MCF-7”, “5×10^6 MCF-7arom” for “5.0×10^6 MCF-7”, “15” for “0.72”, “90-day Δ4A” for “60-day”, “grouped (n=10)” for “grouped”
as §3

[3] = tested on: MCF-7arom breast tumor xenografts; assay: MCF-7arom breast tumor xenograft growth in vivo, FTI plus Anastrozole; parameters: species or system athymic nude mice; conditions: for induction of tumor regression / tumor regression: 28 days; for inhibited tumor growth compared to vehicle-treated animals: 28 days of treatment
Description: as §1
MCF-7arom breast tumor growth was performed as described previously (Lu et al., 1999, Breast Cancer Res. Treat., 57, 183-192; Long et al., 2002, Clin Cancer Res., 8, 2378-2388) with minor modifications. To determine the effect of combined FTI plus Anastrozole on the growth of MCF-7arom breast tumor xenografts, 2.5×10^6 MCF-7arom cells were inoculated into the right flank of the animals in 100 μl of Matrigel (BD Biosciences, Bedford, Mass.). Animals had been implanted with a 25 mg, 90-day Δ4A pellet the previous day. Fourteen days after cell inoculation, the animals were grouped (n=10) for treatment with: • 1) Vehicle • 2) Anastrozole (5 mg per kg [mpk], orally [p.o.], twice a day [b.i.d.]) • 3) FTI (20 mpk, p.o., b.i.d.) • 4) FTI (40 mpk, p.o., b.i.d.) • 5) FTI (60 mpk, p.o., b.i.d.) • 6) FTI (20 mpk, p.o., b.i.d.)+Anastrozole (5 mpk, p.o., b.i.d.) • 7) FTI (40 mpk, p.o., b.i.d.)+Anastrozole (5 mpk, p.o., b.i.d.) • 8) FTI (60 mpk, p.o., b.i.d.)+Anastrozole (5 mpk, p.o., b.i.d.)
Treatment was continued for 28 days and tumor volumes were measured twice a week with calipers. Tumor volumes and animal body weights were recorded using LABCAT (Innovative Programming Associates Inc., Princeton, N.J.). Tumor volumes were calculated by the formula (w×l×h)/2.

[4] = tested on: MCF-7arom breast tumor xenografts; assay: MCF-7arom breast tumor xenograft growth in vivo, FTI plus Letrozole; parameters: species or system athymic nude mice; conditions: Day 10 of treatment
Description: as §1
To determine the effect of combined FTI plus Letrozole on the growth of MCF-7arom breast tumor xenografts, 5×10^6 MCF-7arom cells were inoculated into the right flank of the animals in 100 μl of Matrigel. Animals had been implanted with a 15 mg, 90-day Δ4A pellet the previous day. Fourteen days after cell inoculation, the animals were grouped (n=10) for treatment with: • 1) Vehicle • 2) Letrozole (2.5 mpk, p.o., once a day [q.d.]) • 3) FTI (20 mpk, p.o., b.i.d.) • 4) FTI (40 mpk, p.o., b.i.d.) • 5) FTI (20 mpk, p.o., b.i.d.)+Letrozole (2.5 mpk, p.o., q.d.) • 6) FTI (40 mpk, p.o., b.i.d.)+Letrozole (2.5 mpk, p.o., q.d.)
as §3

C[C@]12CC[C@@H]3c4ccc(O)cc4C[C@@H](CCCCCCCCC[S+]([O-])CCCC(F)(F)C(F)(F)F)[C@H]3[C@@H]1CC[C@@H]2O (stereo partly shown) [Fulvestrant, reference compound]
inhibition at 0.1 µM (MCF-7 cells; Homo sapiens, MCF7, single-agent Fulvestrant 0.1 μM (FIG. 2)): 53%

CC/C(=C(\c1ccccc1)c1ccc(OCCN(C)C)cc1)c1ccccc1 [Tamoxifen, reference compound]
inhibited tumor growth ([1]; Tamoxifen 25 mpk q.d., 14 days of treatment): 29% | inhibited tumor growth ([2]; Tamoxifen 25 mpk p.o. q.d.): 22%

NC(=O)N1CCC(CC(=O)N2CCC([C@H]3c4ncc(Br)cc4CCc4cc(Cl)cc(Br)c43)CC2)CC1 [FTI]
tumor regression, % of initial starting volume ([1]; single-agent FTI 40 mpk b.i.d., Day 14 of treatment): 57% | induction of tumor regression ([3]; FTI 20 mpk b.i.d.): did not induce tumor regression | inhibited tumor growth compared to vehicle-treated animals ([3]; FTI 20 mpk p.o. b.i.d.): 56% | tumor regression ([3]; single-agent FTI 40 mpk b.i.d.): 16% | tumor regression ([3]; single-agent FTI 60 mpk b.i.d.): 40% | IC50 (MCF-7 cells; Homo sapiens, MCF7, 144 h): 40 nM | inhibition at 0.1 µM (MCF-7 cells; Homo sapiens, MCF7, single-agent FTI 0.1 μM, 4-OH Tamoxifen experiment (FIG. 1)): 56% | inhibition at 0.1 µM (MCF-7 cells; Homo sapiens, MCF7, single-agent FTI 0.1 μM, Fulvestrant experiment (FIG. 2)): 43% | inhibited tumor growth ([4]; FTI 40 mpk p.o. b.i.d.): 16% | inhibited tumor growth ([2]; FTI 40 mpk p.o. b.i.d.): 16%

CC/C(=C(\c1ccc(O)cc1)c1ccc(OCCN(C)C)cc1)c1ccccc1 [4-OH Tamoxifen, reference compound]
IC50 (MCF-7 cells): 450 nM | inhibited cell proliferation (MCF-7 cells; single-agent 4-OH Tamoxifen 1.0 μM (FIG. 1)): 55%

CC(C)(C#N)c1cc(Cn2cncn2)cc(C(C)(C)C#N)c1 [Anastrozole, reference compound]
induction of tumor regression ([3]; Anastrozole 5 mpk b.i.d.): did not induce tumor regression | inhibited tumor growth compared to vehicle-treated animals ([3]; Anastrozole 5 mpk p.o. b.i.d.): 62%

N#Cc1ccc(C(c2ccc(C#N)cc2)n2cncn2)cc1 [Letrozole]
inhibited tumor growth ([4]; Letrozole 2.5 mpk p.o. q.d.): 127% | tumor regression ([4]; Letrozole 2.5 mpk p.o. q.d.): 25%
